Assay results from patent US20090312437A1, “Anthraquinones and Analogs from Rhuem palmatum for Treatment of Estrogen Receptor Beta-Mediated Conditions” (Bionovo, Inc., A Delaware Corporation, priority 2008, published 2009).

How the values were obtained:
ERβ [1] = target: T1, ERβ (Homo sapiens, UniProt Q92731); assay: ER binding curves (ERβ compared with ERα)
ERβ [2] = target: T1, ERβ; assay: ERE-tk-Luc luciferase transient transfection assay in U2OS cells with ERβ
Experimental: (§2) The isolated and two purchased (4, 5) anthraquinones, were tested for their ERα and ERβ activities using transient transfection assays in the human U2OS bone cell line with an estrogen response element linked to the luciferase reporter gene (ERE-tkLuc).
(§3) U2OS osteosarcoma cells were cotransfected with a classic ERE upstream of a minimal thymidine kinase (tk) promoter (ERE-tk-Luc) and expression vectors for human ERα or ERβ.

ERβ [3] = target: T1, ERβ; assay: Repression of TNF-α activation of TNF-RE tkLuc in U2OS cells with ERβ; format: cell-based; parameters: expressed in transfected cells; host or cells: U2OS (human osteosarcoma)
[4] = five years of therapy; cited from earlier work
[5] = women at high risk for breast cancer; cited from earlier work
[6] = tested on: MCF-7 breast cancer cells; assay: MCF-7 kidney capsule graft tumor formation in nude mice; format: in vivo, CD-1/Nude female mice; conditions: MCF-7 grafts, 28 days, subcutaneous Alzet pump, 2 mg/200 μL for 6, 360 μg/200 μL for estradiol
Experimental: (§1) The effects of 6 were tested in vivo on breast cancer tumor formation and uterine proliferation. CD-1/Nude female mice, 40-50 days old at time of grafting were selected. Each mouse received 2 grafts per kidney, 4 grafts total with MCF-7 breast cancer cells in 25 μL collagen per graft. Compound 6 was delivered subcutaneously with a Alzet Osmotic pump filled with 200 μL of 6 for 28 days. […] At the end of 28 days of treatment, all grafts and uteri were isolated, pictures taken, weighed, and fixed in formalin.

ERα = target: T2, ERα (Homo sapiens, UniProt P03372); assay: ERE-tk-Luc luciferase transient transfection assay in U2OS cells with ERα; format: cell-based; conditions: ERα expression vector
T2 construct: expressed in transfected cells; host or cells: U2OS (human osteosarcoma)
T2 sequence (P03372 1-595): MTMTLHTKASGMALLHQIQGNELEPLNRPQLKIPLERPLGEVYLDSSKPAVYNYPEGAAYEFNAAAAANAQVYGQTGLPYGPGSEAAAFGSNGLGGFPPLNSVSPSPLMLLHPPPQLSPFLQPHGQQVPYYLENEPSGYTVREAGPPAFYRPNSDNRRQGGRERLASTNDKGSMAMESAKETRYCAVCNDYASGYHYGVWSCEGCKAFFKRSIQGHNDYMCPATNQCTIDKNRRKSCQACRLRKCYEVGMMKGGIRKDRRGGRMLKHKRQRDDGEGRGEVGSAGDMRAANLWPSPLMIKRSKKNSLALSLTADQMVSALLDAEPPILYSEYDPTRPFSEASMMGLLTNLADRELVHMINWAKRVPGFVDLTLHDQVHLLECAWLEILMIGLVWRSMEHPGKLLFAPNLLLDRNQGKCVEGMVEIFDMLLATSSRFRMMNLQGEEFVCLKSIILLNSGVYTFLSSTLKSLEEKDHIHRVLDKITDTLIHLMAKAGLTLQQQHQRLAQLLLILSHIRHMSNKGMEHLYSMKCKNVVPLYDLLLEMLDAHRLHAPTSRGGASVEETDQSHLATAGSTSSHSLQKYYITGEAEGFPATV
Experimental: as §2, §3

uterine proliferation = assay: Uterine proliferation in nude mice, 28 days subcutaneous osmotic pump; format: in vivo, CD-1/Nude female mice; conditions: subcutaneous Alzet pump, 2 mg/200 μL for 6, 360 μg/200 μL for estradiol
Experimental: as §1

T1 sequence (Q92731 whole entry): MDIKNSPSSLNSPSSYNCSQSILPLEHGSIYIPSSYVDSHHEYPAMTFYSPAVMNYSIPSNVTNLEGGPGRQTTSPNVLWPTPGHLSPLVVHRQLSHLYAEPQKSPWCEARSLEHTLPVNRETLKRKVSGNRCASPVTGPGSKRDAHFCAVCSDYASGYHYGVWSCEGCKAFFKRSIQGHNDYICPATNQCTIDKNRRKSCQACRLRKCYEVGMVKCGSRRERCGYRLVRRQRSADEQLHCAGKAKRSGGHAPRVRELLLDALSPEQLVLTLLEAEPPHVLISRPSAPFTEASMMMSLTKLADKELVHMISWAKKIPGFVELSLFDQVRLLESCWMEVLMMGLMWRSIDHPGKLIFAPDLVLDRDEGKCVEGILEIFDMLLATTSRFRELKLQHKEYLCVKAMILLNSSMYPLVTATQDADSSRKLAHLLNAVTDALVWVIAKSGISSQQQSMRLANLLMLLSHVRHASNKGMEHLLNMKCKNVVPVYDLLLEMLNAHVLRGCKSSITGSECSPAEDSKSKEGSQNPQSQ

With emodin [compound 1] the “ERβ-binding curve as compared to the ERα-binding curve” value (ERβ [1]) was “very similar”, the “ERβ-activation of ERE-tk-luc in the presence of compound and raloxifene” value (“ERβ-activation … of compound and raloxifene” below) (ERβ [2]; listed as Emodin) was “attenuated” and the “ERβ-activation … of compound and raloxifene” value (ERβ [2]; listed as emodin) was “repressed”. For the same compound, the “ERβ-activation of ERE-tk-luc in the presence of compound and tamoxifen” value (shortened to “ERβ-activation … of compound and tamoxifen”) (ERβ [2]; listed as Emodin) was “attenuated”, the “ERβ-activation … of compound and tamoxifen” value (ERβ [2]; listed as emodin) was “repressed” and the “repression of TNF-α activation of TNF-RE in the presence of ERβ” value (ERβ [3]) was “produced repression”.

For aloe-emodin [compound 2], the “ERβ-activation … of compound and raloxifene” value (ERβ [2]) was “attenuated”, the “ERβ-activation … of compound and tamoxifen” value (ERβ [2]) was “attenuated” and the “repression of TNF-α activation of TNF-RE in the presence of ERβ” value (ERβ [3]) was “produced repression”.

For CC/C(=C(\c1ccccc1)c1ccc(OCCN(C)C)cc1)c1ccccc1 [tamoxifen], the “reduction of mortality from breast cancer” value [4] is listed as 22%, the “reduction of the risk of recurrences” value [4] is listed as 42% and the “reduction of the risk of primary invasive breast cancer” value [5] is listed as 49%.

In the case of O=C1c2c(O)c(O)c(O)c(O)c2C(=O)c2c(O)c(O)c(O)c(O)c21 [compound 6, octahydroxyanthraquinone], the “tumor formation / proliferation in kidney capsule grafts as compared to control” value [6] is reported as “does not increase breast cancer tumor formation”, the “tumor formation / proliferation in kidney capsule grafts as compared to control” value ([6]; listed as octahydroxyanthraquinone) is reported as “suppresses tumor proliferation” and the “activation of ERE-tk-Luc in the presence of ERα” value (ERα) is reported as “no effect on ERα”.

In the case of C[C@]12CC[C@@H]3c4ccc(O)cc4CC[C@H]3[C@@H]1CC[C@@H]2O [estradiol, reference compound], the “uterine proliferation as compared to control” value (uterine proliferation) is reported as “stimulates uterine proliferation” and the “repression of TNF-α activity on ERβ” value (ERβ [3]; data not shown) is reported as 100%.
